Experiments:
[1] = Hemolytic activity in human RBC assessed as hemolysis at 12.5 uM incubated for 1 hr by spectrophotometric analysis relative to control; format: toxicity, cell-based, Erythrocyte; settings: human red blood cells (erythrocytes), read-out: Activity
[2] = test system: Plasmodium falciparum; test: Antimalarial activity against chloroquine-resistant Plasmodium falciparum W2 assessed as parasite growth inhibition incubated for 72 hrs by Malstat reagent based LDH assay; format: functional, organism-based; settings: W2, 72 h
[3] = test system: Plasmodium falciparum; test: Antimalarial activity against chloroquine-sensitive Plasmodium falciparum NF54 assessed as parasite growth inhibition incubated for 72 hrs by Malstat reagent based LDH assay; format: functional, organism-based; settings: NF54, 72 h
[4] = test system: Leishmania donovani; test: Antileishmanial activity against promastigote stage of Leishmania donovani assessed as parasite growth inhibition incubated for 24 hrs by MTT assay; format: functional, organism-based
[5] = Cytotoxicity against human HEK293 cells assessed as cell growth at 50 uM incubated for 48 hrs by MTT assay relative to control; format: toxicity, cell-based; settings: read-out: Activity
[6] = Safety index, ratio of IC50 for antimalarial activity against chloroquine-sensitive Plasmodium falciparum NF54 to IC50 for cytotoxicity against human HEK293 cells; format: toxicity, cell-based; settings: HEK293 cells versus Plasmodium falciparum NF54, read-out: Ratio IC50
[7] = Cytotoxicity against human HEK293 cells incubated for 48 hrs by MTT assay; format: toxicity, cell-based
[8] = test system: Erythrocyte; test: Hemolytic activity in human RBC assessed as hemolysis at 200 uM incubated for 1 hr by spectrophotometric analysis; format: toxicity, cell-based
[9] = Selectivity index, ratio of IC50 for cytotoxicity against African green monkey Vero cells to IC50 for inhibition of bovine liver DHFR
[10] = biological target: T1, Dihydrofolate reductase (Bos taurus, UniProt P00376); test: Inhibition of bovine liver DHFR incubated for 12 mins in presence of NADPH
T1 sequence (P00376 whole entry): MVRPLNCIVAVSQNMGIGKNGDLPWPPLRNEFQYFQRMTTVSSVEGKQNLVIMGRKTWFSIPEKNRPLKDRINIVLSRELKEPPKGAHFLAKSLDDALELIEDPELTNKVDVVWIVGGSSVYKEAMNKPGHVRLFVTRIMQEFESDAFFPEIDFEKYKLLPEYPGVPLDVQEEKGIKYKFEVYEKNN

[11] = test system: Vero; test: Cytotoxicity against African green monkey Vero cells upto 1000 uM; format: toxicity, cell-based; settings: chlorocebus sabaeus
[12] = test system: Plasmodium falciparum; test: Resistance index, ratio of IC50 for antimalarial activity against chloroquine-resistant Plasmodium falciparum W2 to IC50 for antimalarial activity against chloroquine-sensitive Plasmodium falciparum NF54; format: functional
[13] = test system: Erythrocyte; test: Hemolytic activity in human RBC assessed as hemolysis at 12.5 to 200 uM incubated for 1 hr by spectrophotometric analysis; format: toxicity, cell-based; settings: dose 12.5-200 µM

Structure (SMILES) | hemolysis at 1 h, 12.5 µM [1] [%] | IC50 [2] [µM] | IC50 [3] [µM] | IC50 [4] [µM] | viability at 48 h, 50 µM [5] [%] | selectivity ratio [6] | IC50 at 48 h [7] [µM] | Activity [8] | Ratio IC50 [9] | IC50 [10] [µM] | Activity [11] | Ratio IC50 [12] | Activity [13]
CCOC(=O)c1cnc2ccccc2c1N1CCN(CC(=O)Nc2nnc(COc3ccc4ccccc4c3)s2)CC1 | < 10 | > 10 | 28.9 | 5.32 | 59.8 | 1.73 | – | – | – | – | – | – | –
CN1CCN(CC(=O)Nc2nnc(COc3ccc4ccccc4c3)s2)CC1 | < 10 | > 10 | 7.83 | 7.09 | 42.8 | 8.85 | 69.2 | – | – | – | – | – | –
Cc1ccc(N2CCN(CC(=O)Nc3nnc(COc4ccc5ccccc5c4)s3)CC2)cc1 | < 10 | > 10 | 63.7 | 6.19 | 66.4 | 0.79 | – | – | – | – | – | – | –
O=C(CN1CCN(c2ccccc2O)CC1)Nc1nnc(COc2ccc3ccccc3c2)s1 | < 10 | > 10 | 3.47 | 4.34 | 92.9 | 14.4 | – | Toxic | 400.881 | 2.5 | Non-Toxic | – | –
O=C(CN1CCN(C(c2ccccc2)c2ccccc2)CC1)Nc1nnc(COc2ccc3ccccc3c2)s1 | < 10 | > 10 | 0.94 | 3.55 | 94.4 | 53.2 | – | Toxic | 535.245 | 1.87 | Non-Toxic | – | –
O=C(CN1CCOCC1)Nc1nnc(COc2ccc3ccccc3c2)s1 | < 10 | > 10 | 10.7 | 5.94 | 70 | 6.54 | – | – | – | – | – | – | –
O=C(CN1CCN(c2ccnc3cc(Cl)ccc23)CC1)Nc1nnc(COc2ccc3ccccc3c2)s1 | < 10 | 3.92 | 3.93 | 7.2 | 43.3 | 9.44 | 70.4 | Toxic | 340.518 | 2.94 | Non-Toxic | 0.99 | –
COc1ccc(N2CCN(CC(=O)Nc3nnc(COc4ccc5ccccc5c4)s3)CC2)cc1 | < 10 | > 10 | > 200 | 5.53 | 58 | 0.25 | – | – | – | – | – | – | –
O=C(CN1CCCCC1)Nc1nnc(COc2ccc3ccccc3c2)s1 | < 10 | > 10 | 21.5 | 6.71 | 86.9 | 2.33 | – | Toxic | – | – | – | – | –
O=C(CN1CCN(c2cc(N3CCOCC3)ncn2)CC1)Nc1nnc(COc2ccc3ccccc3c2)s1 | < 10 | > 10 | 61.3 | 6.61 | 87.4 | 0.82 | – | – | – | – | – | – | –
CCN(CC)CCCC(C)Nc1ccnc2cc(Cl)ccc12 (stereo unspecified) [CHLOROQUINE] | – | – | – | – | 58.5 | – | 17.2 | – | – | – | – | – | Toxic
CCCCCCCCCCCCCCCCOP(=O)([O-])OCC[N+](C)(C)C [MILTEFOSINE] | – | – | – | 0.19 | – | – | – | – | – | – | – | – | –
C=C[C@H]1CN2CC[C@H]1C[C@H]2[C@H](O)c1ccnc2ccc(OC)cc12 [QUININE] | – | – | 0.108 | – | – | – | – | – | – | – | – | – | –

Source: ChEMBL document CHEMBL5356991, “Naphthyl bearing 1,3,4-thiadiazoleacetamides targeting the parasitic folate pathway as anti-infectious agents: in silico, synthesis, and biological approach” (RSC Med Chem, 2023)
